One block for each molecule: values may come before it. Active and inactive are the calls of the source. The calls are words filed in the database; no cut-off is given here.
Experiments:
[1] = biological target: Tryptase (Homo sapiens) (UniProt Q9BZJ3+Q15661+Q9NRR2); experiment: Inhibitor specificity constant ki/Ki was evaluated for the compound against tryptase; NI means No inhibition; format: protein assay
[2] = biological target: Serine protease 1 (Homo sapiens) (UniProt P07477); experiment: The inhibitor specificity constant ki/Ki was evaluated for the compound against trypsin
[3] = biological target: Prothrombin (Homo sapiens, UniProt P00734); experiment: Evaluated for inhibition against thrombin
[4] = biological target: Coagulation factor X (Homo sapiens) (UniProt P00742); experiment: Inhibitor specificity constant ki/Ki was evaluated for the compound against Factor Xa
Sequence of Coagulation factor X (Homo sapiens) (P00742 41-179 limits assumed): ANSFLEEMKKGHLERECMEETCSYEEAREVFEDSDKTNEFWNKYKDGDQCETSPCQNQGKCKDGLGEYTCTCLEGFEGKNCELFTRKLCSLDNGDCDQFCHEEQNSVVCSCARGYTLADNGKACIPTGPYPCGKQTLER
Sequence of Coagulation factor X (Homo sapiens) (P00742 235-488 limits assumed): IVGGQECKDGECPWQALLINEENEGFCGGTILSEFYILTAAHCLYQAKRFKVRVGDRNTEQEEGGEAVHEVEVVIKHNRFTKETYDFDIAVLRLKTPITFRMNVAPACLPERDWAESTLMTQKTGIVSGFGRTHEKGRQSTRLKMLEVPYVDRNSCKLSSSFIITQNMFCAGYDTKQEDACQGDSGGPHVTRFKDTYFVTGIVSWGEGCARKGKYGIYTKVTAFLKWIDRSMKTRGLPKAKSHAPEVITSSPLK

Sequence of Serine protease 1 (Homo sapiens) (P07477 whole entry): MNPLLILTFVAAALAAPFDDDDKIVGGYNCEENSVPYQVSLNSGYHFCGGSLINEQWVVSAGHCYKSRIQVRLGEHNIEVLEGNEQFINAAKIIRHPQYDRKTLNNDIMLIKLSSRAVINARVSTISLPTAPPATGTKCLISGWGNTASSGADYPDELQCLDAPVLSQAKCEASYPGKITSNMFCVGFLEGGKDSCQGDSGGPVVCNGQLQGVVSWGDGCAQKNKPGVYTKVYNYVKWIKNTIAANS

ki/Ki [1]: inactive
Structure (SMILES): COc1ccc(C(=O)OC[C@H](CCCN=C(N)N)NC(=O)[C@H](CCC(N)=O)NC(=O)[C@H](CCCN=C(N)N)NC(C)=O)cc1

ki/Ki [2]: 0.0417 M⁻¹ s⁻¹
Ki [3]: 14 µM
Structure (SMILES): COc1ccc(C(=O)OC[C@H](CCCN=C(N)N)NC(=O)[C@@H]2CCCN2C(=O)[C@@H](Cc2ccccc2)NC(=O)OC(C)(C)C)cc1

ki/Ki [4]: 0.075 M⁻¹ s⁻¹
Structure (SMILES): CC[C@H](C)[C@H](NC(=O)OC(C)(C)C)C(=O)N[C@@H](CCC(=O)O)C(=O)NCC(=O)N[C@@H](CCCN=C(N)N)COC(=O)c1ccc(OC)cc1
